ChEMBL document CHEMBL1201862, “PubChem BioAssay data set” (2004)
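Exposure lasted 48 hours, with cells grown in 96-well plates and compounds tested at five concentrations. GI50 marks 50% less growth.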 Activity calls are given as the source filed them. Cut-off read from the data, not from the text of the source: active = GI50 up to about 1.1 µM and inactive = higher.

Tests used:
Assay in all cases: NCI tumour cell line growth inhibition, 48 h
[1] = test system: SK-MEL-28
[2] = test system: SW-620
[3] = test system: MDA-N
[4] = test system: NCI-H23
[5] = test system: OVCAR-5
[6] = test system: M14
[7] = test system: SF-295
[8] = test system: HOP-92
[9] = test system: NCI/ADR-RES
[10] = test system: CAKI-1
[11] = test system: COLO 205
[12] = test system: BT-549
[13] = test system: DU-145
[14] = test system: SF-539
[15] = test system: Malme-3M
[16] = test system: OVCAR-8
[17] = test system: IGROV-1
[18] = test system: HL-60
[19] = test system: SNB-19
[20] = test system: NCI-H226
[21] = test system: UO-31
[22] = test system: PC-3
[23] = test system: MDA-MB-231
[24] = test system: K562
[25] = test system: SNB-75
[26] = test system: NCI-H522
[27] = test system: OVCAR-4
[28] = test system: CCRF-CEM
[29] = test system: TK-10
[30] = test system: SR
[31] = test system: LOX IMVI
[32] = test system: MDA-MB-435
[33] = test system: SN12C
[34] = test system: HT-29
[35] = test system: SK-MEL-2
[36] = test system: ACHN
[37] = test system: HCC 2998
[38] = test system: NCI-H460
[39] = test system: HOP-62
[40] = test system: UACC-257
[41] = test system: SK-OV-3
[42] = test system: HCT-116
[43] = test system: 786-0
[44] = test system: SF-268
[45] = test system: Hs-578T
[46] = test system: MOLT-4
[47] = test system: UACC-62
[48] = test system: A549
[49] = test system: MCF7
[50] = test system: HCT-15
[51] = test system: U-251
[52] = test system: OVCAR-3
[53] = test system: EKVX
[54] = test system: KM12
[55] = test system: RXF 393
[56] = test system: A498
[57] = test system: SK-MEL-5
[58] = test system: RPMI-8226

Cc1ccc2nc(CN(CCO)CCO)cc(=O)n2c1
GI50 [1]: > 100 µM (inactive) | GI50 [2]: > 100 µM (inactive) | GI50 [3]: > 100 µM (inactive) | GI50 [4]: > 100 µM (inactive) | GI50 [5]: > 100 µM (inactive) | GI50 [6]: > 100 µM (inactive) | GI50 [7]: > 100 µM (inactive) | GI50 [8]: > 100 µM (inactive) | GI50 [9]: > 100 µM (inactive) | GI50 [10]: > 100 µM (inactive) | GI50 [11]: > 100 µM (inactive) | GI50 [12]: > 100 µM (inactive) | GI50 [13]: > 100 µM (inactive) | GI50 [14]: > 100 µM (inactive) | GI50 [15]: > 100 µM (inactive) | GI50 [16]: > 100 µM (inactive) | GI50 [17]: > 100 µM (inactive) | GI50 [18]: > 100 µM (inactive) | GI50 [19]: > 100 µM (inactive) | GI50 [20]: > 100 µM (inactive) | GI50 [21]: > 100 µM (inactive) | GI50 [22]: > 100 µM (inactive) | GI50 [23]: > 100 µM (inactive) | GI50 [24]: > 100 µM (inactive) | GI50 [25]: > 100 µM (inactive) | GI50 [26]: > 100 µM (inactive) | GI50 [27]: > 100 µM (inactive) | GI50 [28]: > 100 µM (inactive) | GI50 [29]: > 100 µM (inactive) | GI50 [30]: > 100 µM (inactive) | GI50 [31]: > 100 µM (inactive) | GI50 [32]: > 100 µM (inactive) | GI50 [33]: > 100 µM (inactive) | GI50 [34]: > 100 µM (inactive) | GI50 [35]: > 100 µM (inactive) | GI50 [36]: > 100 µM (inactive) | GI50 [37]: > 100 µM (inactive) | GI50 [38]: > 100 µM (inactive) | GI50 [39]: > 100 µM (inactive) | GI50 [40]: > 100 µM (inactive) | GI50 [41]: > 100 µM (inactive) | GI50 [42]: > 100 µM (inactive) | GI50 [43]: > 100 µM (inactive) | GI50 [44]: > 100 µM (inactive) | GI50 [45]: > 100 µM (inactive) | GI50 [46]: > 100 µM (inactive) | GI50 [47]: > 100 µM (inactive) | GI50 [48]: > 100 µM (inactive) | GI50 [49]: > 100 µM (inactive) | GI50 [50]: > 100 µM | GI50 [51]: > 100 µM (inactive) | GI50 [52]: > 100 µM (inactive) | GI50 [53]: > 100 µM (inactive) | GI50 [54]: > 100 µM (inactive)

CC(C)(C)C1CCC2c3c([nH]c4ccccc34)C3C(=O)N(c4ccccc4Cl)C(=O)C3C2C1 (stereo unspecified)
GI50 [2]: 7.94 µM (inactive) | GI50 [3]: 12.1 µM (inactive) | GI50 [4]: 14.4 µM (inactive) | GI50 [5]: > 10 µM (inactive) | GI50 [55]: 11.9 µM (inactive) | GI50 [6]: 17.1 µM (inactive) | GI50 [7]: 19.7 µM (inactive) | GI50 [8]: 0.15 µM (active) | GI50 [9]: 15.3 µM (inactive) | GI50 [10]: 9.12 µM (inactive) | GI50 [11]: > 10 µM (inactive) | GI50 [12]: 23.8 µM (inactive) | GI50 [13]: 15.1 µM (inactive) | GI50 [14]: > 10 µM (inactive) | GI50 [15]: 17.3 µM (inactive) | GI50 [16]: 16 µM (inactive) | GI50 [17]: 25.9 µM (inactive) | GI50 [18]: 12.6 µM (inactive) | GI50 [19]: 35.8 µM (inactive) | GI50 [20]: > 10 µM (inactive) | GI50 [21]: 14.5 µM (inactive) | GI50 [22]: 5.31 µM (inactive) | GI50 [56]: 17.9 µM (inactive) | GI50 [23]: 10.3 µM (inactive) | GI50 [57]: 14.1 µM (inactive) | GI50 [24]: 9.79 µM (inactive) | GI50 [28]: 15.3 µM (inactive) | GI50 [29]: 19.4 µM (inactive) | GI50 [30]: 13.4 µM (inactive) | GI50 [31]: 10.6 µM (inactive) | GI50 [58]: 31.4 µM (inactive) | GI50 [32]: 30.7 µM (inactive) | GI50 [33]: 10.6 µM (inactive) | GI50 [34]: 5.86 µM (inactive) | GI50 [35]: 17.5 µM (inactive) | GI50 [36]: 14.1 µM (inactive) | GI50 [37]: 3.41 µM (inactive) | GI50 [38]: 3.48 µM (inactive) | GI50 [39]: 14.5 µM (inactive) | GI50 [40]: 31.6 µM (inactive) | GI50 [41]: 22.8 µM (inactive) | GI50 [42]: 3.18 µM (inactive) | GI50 [43]: 10.3 µM (inactive) | GI50 [44]: 14.4 µM (inactive) | GI50 [45]: 10.4 µM (inactive) | GI50 [46]: 17.9 µM (inactive) | GI50 [47]: 14 µM (inactive) | GI50 [48]: 9.2 µM (inactive) | GI50 [50]: 12.1 µM | GI50 [51]: 15.6 µM (inactive) | GI50 [52]: 15.6 µM (inactive) | GI50 [53]: 6.65 µM (inactive)
